From publication PMC6409085, “Three odorant-binding proteins are involved in the behavioral response of Sogatella furcifera to rice plant volatiles” (PeerJ, 2019)
“And” between values parts separate entries of the source, which are not always exact repeats. Equal values may be shown once.

How the values were obtained:
Test in all cases: biochemical
Type in all cases: binding
SfurOBP11 = SfurOBP11 (Sogatella furcifera, UniProt V5T6E3)
Method: (§1) Thirty-six rice odorants ([He et al., 2014]; [Wang et al., 2017]) and 1-N-phenyl-naphthylamine (1-NPN) were purchased from Sigma-Aldrich (St Louis, MO, USA). These odorants and 1-NPN were dissolved in high-performance liquid chromatography (HPLC) purify grade methanol for 1.0 mM as work solution.
(§2) Fluorescence competitive binding assays were performed on Tecan Spark 10M (Tecan Group Ltd., Männedorf, Switzerland) with the F96 Black ELIAS Plate (Sangon) ([Khuhro et al., 2017]; [Liu et al., 2017]). The solutions were excited at 337 nm and emission spectra were recorded between 390 and 490 nm. First, to test the binding constants of 1-NPN to the SfurOBPs, a 2.0 µM solution of protein in 50 mM Tris-HCl (pH = 7.4) was titrated with 1 mM 1-NPN to achieve virous concentrations. Next, the competitive binding of each odorant was measured using the 1-NPN as fluorescent reporter and odorant as competitor. The concentrations of protein and 1-NPN were both 2.0 µM, the odorant added after protein and 1-NPN added into the well of ELIAS Plate for 2 min. The final concentrations of each competitor were 2, 4, 6, 8, 10, 12, 14, 16, 18 and 20 µM. After 2 min of odorant added, the fluorescence intensity was measured and recorded. The volume of mixed solution in each well was maintained at 250 µL. Each interaction was performed in triplicates.
(§3) GraphPad Prism 7.0 software (GraphPad Software, Inc., La Jolla, CA, USA) was used to calculated and generated the binding constants (K1−NPN) of 1-NPN to SfurOBPs and relative Scatchard plots ([Ban et al., 2003]; [Li et al., 2016]). Dissociation constant (Ki) of each odorant to SfurOBP was computed from the corresponding IC50 value (the half maximal inhibitory concentration), using the following equation: Ki=[IC50]/(1 + [1-NPN]/K1−NPN), where [1-NPN] is the free concentration of 1-NPN and K1−NPN is the dissociation constant of the complex protein/1-NPN.

SfurOBP3 = SfurOBP3 (Sogatella furcifera, UniProt V5T818); settings: OBP3, three replicate columns
Chain of SfurOBP3 (V5T818 entry or part of it): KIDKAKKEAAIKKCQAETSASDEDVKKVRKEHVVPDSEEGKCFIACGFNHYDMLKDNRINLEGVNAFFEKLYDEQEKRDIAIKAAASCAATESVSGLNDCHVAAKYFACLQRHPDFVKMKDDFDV
Method: as §1, §2, §3

SfurOBP2 = SfurOBP2 (Sogatella furcifera, UniProt V5T759)
Chain of SfurOBP2 (V5T759 entry or part of it): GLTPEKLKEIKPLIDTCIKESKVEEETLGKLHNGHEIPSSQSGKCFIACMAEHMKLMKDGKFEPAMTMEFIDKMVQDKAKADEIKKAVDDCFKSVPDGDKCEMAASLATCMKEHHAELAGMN
Method: as §1, §2, §3

SfurOBP1 = SfurOBP1 (Sogatella furcifera, UniProt V5T8N5); settings: OBP1, three replicate columns
Chain of SfurOBP1 (V5T8N5 entry or part of it): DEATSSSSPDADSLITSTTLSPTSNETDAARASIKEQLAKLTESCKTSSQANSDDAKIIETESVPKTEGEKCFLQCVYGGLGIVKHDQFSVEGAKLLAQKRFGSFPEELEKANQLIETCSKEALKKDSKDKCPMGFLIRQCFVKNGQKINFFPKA
Method: as §1, §2, §3

Chain of SfurOBP11 (V5T6E3 entry or part of it): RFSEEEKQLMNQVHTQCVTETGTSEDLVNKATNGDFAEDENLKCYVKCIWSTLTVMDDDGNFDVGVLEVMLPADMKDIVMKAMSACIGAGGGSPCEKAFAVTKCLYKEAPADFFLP

Cc1cc(C(C)(C)C)c(O)c(C(C)(C)C)c1 [BHT(2,6-di-tert-butyl-4-methylphenol)]
Fluorescence intensity, fluorescence competitive binding assay, OBP11 (SfurOBP11; ligand concentration 2, replicate 1): 23825 | Fluorescence intensity, fluorescence competitive binding assay, OBP11 (SfurOBP11; ligand concentration 2, replicate 2): 22642 | Fluorescence intensity, fluorescence competitive binding assay, OBP11 (SfurOBP11; ligand concentration 2, replicate 3): 21527 | Fluorescence intensity, fluorescence competitive binding assay, OBP11 (SfurOBP11; ligand concentration 4, replicate 1): 20143 | Fluorescence intensity, fluorescence competitive binding assay, OBP11 (SfurOBP11; ligand concentration 4, replicate 2): 21258 | Fluorescence intensity, fluorescence competitive binding assay, OBP11 (SfurOBP11; ligand concentration 4, replicate 3): 22100 | Fluorescence intensity, fluorescence competitive binding assay, OBP11 (SfurOBP11; ligand concentration 6, replicate 1): 20464 | Fluorescence intensity, fluorescence competitive binding assay, OBP11 (SfurOBP11; ligand concentration 6, replicate 2): 20607 | Fluorescence intensity, fluorescence competitive binding assay, OBP11 (SfurOBP11; ligand concentration 6, replicate 3): 21862 | Fluorescence intensity, fluorescence competitive binding assay, OBP11 (SfurOBP11; ligand concentration 8, replicate 1): 19852 | Fluorescence intensity, fluorescence competitive binding assay, OBP11 (SfurOBP11; ligand concentration 8, replicate 2): 19956 | Fluorescence intensity, fluorescence competitive binding assay, OBP11 (SfurOBP11; ligand concentration 8, replicate 3): 20060 | Fluorescence intensity, fluorescence competitive binding assay, OBP11 (SfurOBP11; ligand concentration 10, replicate 1): 19539 | Fluorescence intensity, fluorescence competitive binding assay, OBP11 (SfurOBP11; ligand concentration 10, replicate 2): 18542 | Fluorescence intensity, fluorescence competitive binding assay, OBP11 (SfurOBP11; ligand concentration 10, replicate 3): 20536 | Fluorescence intensity, fluorescence competitive binding assay, OBP11 (SfurOBP11; ligand concentration 12, replicate 1): 18948 | Fluorescence intensity, fluorescence competitive binding assay, OBP11 (SfurOBP11; ligand concentration 12, replicate 2): 19227 | Fluorescence intensity, fluorescence competitive binding assay, OBP11 (SfurOBP11; ligand concentration 12, replicate 3): 18669 | Fluorescence intensity, fluorescence competitive binding assay, OBP11 (SfurOBP11; ligand concentration 14, replicate 1): 16147 | Fluorescence intensity, fluorescence competitive binding assay, OBP11 (SfurOBP11; ligand concentration 14, replicate 2): 16112 | Fluorescence intensity, fluorescence competitive binding assay, OBP11 (SfurOBP11; ligand concentration 14, replicate 3): 15881 | Fluorescence intensity, fluorescence competitive binding assay, OBP11 (SfurOBP11; ligand concentration 16, replicate 1): 16019 | Fluorescence intensity, fluorescence competitive binding assay, OBP11 (SfurOBP11; ligand concentration 16, replicate 2): 15985 | Fluorescence intensity, fluorescence competitive binding assay, OBP11 (SfurOBP11; ligand concentration 16, replicate 3): 16022 | Fluorescence intensity, fluorescence competitive binding assay, OBP11 (SfurOBP11; ligand concentration 18, replicate 1): 16028 | Fluorescence intensity, fluorescence competitive binding assay, OBP11 (SfurOBP11; ligand concentration 18, replicate 2): 15902 | Fluorescence intensity, fluorescence competitive binding assay, OBP11 (SfurOBP11; ligand concentration 18, replicate 3): 15995 | Fluorescence intensity, fluorescence competitive binding assay, OBP11 (SfurOBP11; ligand concentration 20, replicate 1): 15978 | Fluorescence intensity, fluorescence competitive binding assay, OBP11 (SfurOBP11; ligand concentration 20, replicate 2): 15860 | Fluorescence intensity, fluorescence competitive binding assay, OBP11 (SfurOBP11; ligand concentration 20, replicate 3): 15984 | Fluorescence competitive binding assay, fluorescence intensity (SfurOBP3; ligand concentration 2): 62922 and 62019 and 61313 | Fluorescence competitive binding assay, fluorescence intensity (SfurOBP3; ligand concentration 4): 80496 and 109930 and 48944 | Fluorescence competitive binding assay, fluorescence intensity (SfurOBP3; ligand concentration 6): 58503 and 58107 and 50633 | Fluorescence competitive binding assay, fluorescence intensity (SfurOBP3; ligand concentration 8): 41822 and 72799 and 53759 | Fluorescence competitive binding assay, fluorescence intensity (SfurOBP3; ligand concentration 10): 69788 and 72654 and 85946 | Fluorescence competitive binding assay, fluorescence intensity (SfurOBP3; ligand concentration 12): 60000 and 90914 and 74114 | Fluorescence competitive binding assay, fluorescence intensity (SfurOBP3; ligand concentration 14): 74285 and 75475 and 71382 | Fluorescence competitive binding assay, fluorescence intensity (SfurOBP3; ligand concentration 16): 52587 and 87313 and 65294 | Fluorescence competitive binding assay, fluorescence intensity (SfurOBP3; ligand concentration 18): 52719 and 70169 and 103842 | Fluorescence competitive binding assay, fluorescence intensity (SfurOBP3; ligand concentration 20): 122349 and 93664 and 80933 | Fluorescence competitive binding assay, OBP2 (raw fluorescence reading) (SfurOBP2; ligand concentration 2 (unit not given), replicate column 1 of 3): 17266 | Fluorescence competitive binding assay, OBP2 (raw fluorescence reading) (SfurOBP2; ligand concentration 2 (unit not given), replicate column 2 of 3): 17491 | Fluorescence competitive binding assay, OBP2 (raw fluorescence reading) (SfurOBP2; ligand concentration 2 (unit not given), replicate column 3 of 3): 17183 | Fluorescence competitive binding assay, OBP2 (raw fluorescence reading) (SfurOBP2; ligand concentration 4 (unit not given), replicate column 1 of 3): 14970 | Fluorescence competitive binding assay, OBP2 (raw fluorescence reading) (SfurOBP2; ligand concentration 4 (unit not given), replicate column 2 of 3): 16711 | Fluorescence competitive binding assay, OBP2 (raw fluorescence reading) (SfurOBP2; ligand concentration 4 (unit not given), replicate column 3 of 3): 16317 | Fluorescence competitive binding assay, OBP2 (raw fluorescence reading) (SfurOBP2; ligand concentration 6 (unit not given), replicate column 1 of 3): 15662 | Fluorescence competitive binding assay, OBP2 (raw fluorescence reading) (SfurOBP2; ligand concentration 6 (unit not given), replicate column 2 of 3): 16983 | Fluorescence competitive binding assay, OBP2 (raw fluorescence reading) (SfurOBP2; ligand concentration 6 (unit not given), replicate column 3 of 3): 15070 | Fluorescence competitive binding assay, OBP2 (raw fluorescence reading) (SfurOBP2; ligand concentration 8 (unit not given), replicate column 1 of 3): 15947 | Fluorescence competitive binding assay, OBP2 (raw fluorescence reading) (SfurOBP2; ligand concentration 8 (unit not given), replicate column 2 of 3): 15853 | Fluorescence competitive binding assay, OBP2 (raw fluorescence reading) (SfurOBP2; ligand concentration 8 (unit not given), replicate column 3 of 3): 15572 | Fluorescence competitive binding assay, OBP2 (raw fluorescence reading) (SfurOBP2; ligand concentration 10 (unit not given), replicate column 1 of 3): 14398 | Fluorescence competitive binding assay, OBP2 (raw fluorescence reading) (SfurOBP2; ligand concentration 10 (unit not given), replicate column 2 of 3): 14630 | Fluorescence competitive binding assay, OBP2 (raw fluorescence reading) (SfurOBP2; ligand concentration 10 (unit not given), replicate column 3 of 3): 15652 | Fluorescence competitive binding assay, OBP2 (raw fluorescence reading) (SfurOBP2; ligand concentration 12 (unit not given), replicate column 1 of 3): 14856 | Fluorescence competitive binding assay, OBP2 (raw fluorescence reading) (SfurOBP2; ligand concentration 12 (unit not given), replicate column 2 of 3): 14795 | Fluorescence competitive binding assay, OBP2 (raw fluorescence reading) (SfurOBP2; ligand concentration 12 (unit not given), replicate column 3 of 3): 14083 | Fluorescence competitive binding assay, OBP2 (raw fluorescence reading) (SfurOBP2; ligand concentration 14 (unit not given), replicate column 1 of 3): 12632 | Fluorescence competitive binding assay, OBP2 (raw fluorescence reading) (SfurOBP2; ligand concentration 14 (unit not given), replicate column 2 of 3): 13317 | Fluorescence competitive binding assay, OBP2 (raw fluorescence reading) (SfurOBP2; ligand concentration 14 (unit not given), replicate column 3 of 3): 14001 | Fluorescence competitive binding assay, OBP2 (raw fluorescence reading) (SfurOBP2; ligand concentration 16 (unit not given), replicate column 1 of 3): 12208 | Fluorescence competitive binding assay, OBP2 (raw fluorescence reading) (SfurOBP2; ligand concentration 16 (unit not given), replicate column 2 of 3): 12493 | Fluorescence competitive binding assay, OBP2 (raw fluorescence reading) (SfurOBP2; ligand concentration 16 (unit not given), replicate column 3 of 3): 12411 | Fluorescence competitive binding assay, OBP2 (raw fluorescence reading) (SfurOBP2; ligand concentration 18 (unit not given), replicate column 1 of 3): 12799 | Fluorescence competitive binding assay, OBP2 (raw fluorescence reading) (SfurOBP2; ligand concentration 18 (unit not given), replicate column 2 of 3): 12350 | Fluorescence competitive binding assay, OBP2 (raw fluorescence reading) (SfurOBP2; ligand concentration 18 (unit not given), replicate column 3 of 3): 11202 | Fluorescence competitive binding assay, OBP2 (raw fluorescence reading) (SfurOBP2; ligand concentration 20 (unit not given), replicate column 1 of 3): 12923 | Fluorescence competitive binding assay, OBP2 (raw fluorescence reading) (SfurOBP2; ligand concentration 20 (unit not given), replicate column 2 of 3): 12557 | Fluorescence competitive binding assay, OBP2 (raw fluorescence reading) (SfurOBP2; ligand concentration 20 (unit not given), replicate column 3 of 3): 10378 | Fluorescence competitive binding assay, fluorescence intensity (SfurOBP1; ligand concentration 2 (μM)): 6030 and 6058 and 6096 | Fluorescence competitive binding assay, fluorescence intensity (SfurOBP1; ligand concentration 4 (μM)): 6092 and 6318 and 6150 | Fluorescence competitive binding assay, fluorescence intensity (SfurOBP1; ligand concentration 6 (μM)): 6520 and 6547 and 6496 | Fluorescence competitive binding assay, fluorescence intensity (SfurOBP1; ligand concentration 8 (μM)): 6548 and 6679 and 6600 | Fluorescence competitive binding assay, fluorescence intensity (SfurOBP1; ligand concentration 10 (μM)): 6739 and 6709 and 6666 | Fluorescence competitive binding assay, fluorescence intensity (SfurOBP1; ligand concentration 12 (μM)): 6775 and 6778 and 6802 | Fluorescence competitive binding assay, fluorescence intensity (SfurOBP1; ligand concentration 14 (μM)): 6847 and 6906 and 6978 | Fluorescence competitive binding assay, fluorescence intensity (SfurOBP1; ligand concentration 16 (μM)): 6943 and 7135 and 6900 | Fluorescence competitive binding assay, fluorescence intensity (SfurOBP1; ligand concentration 18 (μM)): 7439 and 7058 and 7176 | Fluorescence competitive binding assay, fluorescence intensity (SfurOBP1; ligand concentration 20 (μM)): 7203 and 7412 and 7729
